Columns and labels:
[1] = molecular target: T1, human L-Selectin-IgG-chimera (Homo sapiens, UniProt P14151); test: Sialyl Lewis X Tyrosine Sulfate Assay (sLex TSA), L-selectin; format: binding; conditions: sLexTSA; for L-Selectin [% inhib.]: in vitro inhibition at 100 μM
T1 construct: fused on or other part: human IgG Fc part, captured on the plate by goat anti human Fc antibody; a tag, no second protein
T1 sequence (P14151 39-318 limits assumed): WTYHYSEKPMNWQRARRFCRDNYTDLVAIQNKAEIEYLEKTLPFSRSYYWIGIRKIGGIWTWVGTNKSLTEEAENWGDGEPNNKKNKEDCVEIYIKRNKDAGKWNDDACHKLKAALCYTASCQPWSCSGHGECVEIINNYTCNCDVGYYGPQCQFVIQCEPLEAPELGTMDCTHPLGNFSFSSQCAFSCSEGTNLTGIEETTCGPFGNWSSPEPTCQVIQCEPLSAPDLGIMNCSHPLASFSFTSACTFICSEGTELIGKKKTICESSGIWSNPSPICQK
Method: (§1) Sialyl Lewis^X Tyrosine Sulfate Assay (sLe^x TSA):
(§2) Compounds of the present invention are assayed on a molecular level for their ability to inhibit the binding of P-, L-, or E-selectin chimeric molecules to sLe^x and tyrosinesulfate residues linked to a polymeric matrix as a PSGL-1 substitute. Selected IC50-values are determined.
(§3) Microtiter plates are coated overnight in carbonate buffer pH9.6 with goat anti human Fc mAB (10 μg/ml). After washing in assay buffer (25 mM 4-(2-hydroxyethyl)-1-piperazineethanesulfonic acid (HEPES), 150 mM NaCl, 1 mM CaCl2 pH7.4) and blocking (3% bovine serum albumin (BSA) in assay buffer) plates are incubated for 2 h at 37° C. with human P-Selectin-IgG-chimera (0.61 nM respectively 150 ng/mL) or human L-Selectin-IgG-chimera (0.61 nM respectively 89 ng/mL) or human E-Selectin-IgG-chimera (0.61 nM respectively 131 ng/mL). 5 μl of sLe^x-tyrosine sulfate polyacrylamide (1 mg/ml) carrying 15% sLe^x, 10% Tyrosine-sulfate and 5% biotin is complexed with 20 μl Streptavidin-Peroxidase solution (1 mg/ml) and 25 μl assay buffer without CaCl2. For use in the assay, the ligand complex is diluted 1:10000 in assay buffer and further diluted 1:1 with varying amounts of compounds in assay buffer incl. 2% DMSO. This mixture is added to the wells precoated with E- or P-selectin. After incubation for 2 h at 37° C., wells are washed for six times with in assay buffer incl. 0.005% Polyoxyethylenesorbitan monolaurate (TWEEN 20), developed for 10-15 min with 20 μl 3,3′,5,5′-tetramethylbenzidine (TMB)/H2O2 substrate solution and stopped with 20 μl 1M H2SO4. Bound sLe^x-Tyrosine sulfate ligand complex is determined by measuring optical density at 450 nm vs. 620 nm in a Fusion alpha-FP reader (sold from Packard Bioscience, Dreieich, Germany).

[2] = molecular target: T2, human P-Selectin-IgG-chimera (Homo sapiens, UniProt P16109); test: Sialyl Lewis X Tyrosine Sulfate Assay (sLex TSA), P-selectin; format: binding; conditions: sLexTSA; for P-Selectin [% inhib.]: in vitro inhibition at 100 μM
T2 sequence (P16109 42-771 limits assumed): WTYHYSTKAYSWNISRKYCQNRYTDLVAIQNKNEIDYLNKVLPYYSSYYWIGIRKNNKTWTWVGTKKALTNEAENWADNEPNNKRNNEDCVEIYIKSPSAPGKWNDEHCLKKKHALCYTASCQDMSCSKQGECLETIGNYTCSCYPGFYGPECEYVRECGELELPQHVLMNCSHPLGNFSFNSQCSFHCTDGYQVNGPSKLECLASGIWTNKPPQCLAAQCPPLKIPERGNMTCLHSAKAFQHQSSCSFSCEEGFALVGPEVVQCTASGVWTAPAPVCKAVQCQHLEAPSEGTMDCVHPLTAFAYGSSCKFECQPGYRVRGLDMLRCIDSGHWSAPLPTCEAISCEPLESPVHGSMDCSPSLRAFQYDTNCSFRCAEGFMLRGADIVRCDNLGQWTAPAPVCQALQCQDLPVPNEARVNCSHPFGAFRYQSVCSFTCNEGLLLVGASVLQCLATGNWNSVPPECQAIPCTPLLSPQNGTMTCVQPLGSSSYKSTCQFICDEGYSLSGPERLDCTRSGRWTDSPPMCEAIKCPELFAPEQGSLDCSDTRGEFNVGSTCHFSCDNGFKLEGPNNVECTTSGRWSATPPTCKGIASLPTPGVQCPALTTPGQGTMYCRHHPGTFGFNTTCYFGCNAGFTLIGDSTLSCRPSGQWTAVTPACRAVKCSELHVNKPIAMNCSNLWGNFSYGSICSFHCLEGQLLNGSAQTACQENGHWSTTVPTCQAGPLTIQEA
Method: as §1, §2, §3

[3] = molecular target: T3, human E-Selectin-IgG-chimera (Homo sapiens, UniProt P16581); test: Sialyl Lewis X Tyrosine Sulfate Assay (sLex TSA), E-selectin; format: binding; conditions: sLexTSA, in vitro inhibition at 100 μM
T3 construct: fused on or other part: human IgG Fc part, captured on the plate by goat anti human Fc antibody; a tag, no second protein
T3 sequence (P16581 22-175 limits assumed): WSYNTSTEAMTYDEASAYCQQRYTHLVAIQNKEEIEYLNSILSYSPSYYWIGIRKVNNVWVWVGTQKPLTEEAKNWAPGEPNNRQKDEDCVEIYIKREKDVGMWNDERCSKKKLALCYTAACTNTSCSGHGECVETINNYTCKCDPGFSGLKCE
Method: as §1, §2, §3

[4] = system: human E-selectin-IgG chimera; test: Flow chamber assay, cell adhesion and rolling under flow conditions, E-selectin; format: cell-based; conditions: normalized ratio of %-inhibition of compound divided by %-inhibition of bimosiamose; 125 μM compound; HL-60 cells; flow shear 1 dyne/cm^2
Method: (§4) Flow Chamber Assay/Cell Adhesion and Rolling Under Flow Conditions
(§5) To assess the capability of compounds to inhibit cell binding under dynamic conditions resembling the flow in a blood vessel, flow chamber assays addressing/testing binding of HL-60 cells/various cell lines to P-selectin, L-selectin and E-selectin chimeric molecules are performed.
(§6) Cell attachment under flow conditions is determined using a parallel flow chamber system. A 35 mm polystyrene culture dish is coated for 1 hour at room temperature with coating buffer (50 mM tris-(hydroxymethyl)aminomethane buffer (Tris), 150 mM NaCl, 2 mM CaCl2; pH 7.4) containing human E- or P-selectin-IgG chimera at concentrations of 2.5 μg/ml or 10 μg/ml, respectively. After removal of the coating solution non specific binding sites are blocked for an additional hour with 1% BSA in coating buffer at room temperature. After washing with assay buffer (“Roswell Park Memorial Institute 1640” (RPMI 1640)+10 mM HEPES) the dish is fitted into a parallel plate laminar flow chamber (sold from Glycotech, Rockville, Md.) and mounted on an inverted phase-contrast microscope (sold from Olympus, Hamburg, Germany) equipped with a CCD camera (JVC) that is connected to a PC. Employing a peristaltic pump (sold from Ismatec, Wertheim-Mondfeld, Germany) the re-circulating system is equilibrated with assay buffer containing 125 μM compound or vehicle control (DMSO). Cells (1 million/ml) are added to the chamber and allowed to distribute for 2 minutes at a high flow rate. The flow rate is then decreased resulting in a calculated flow shear of 1 dyne/cm^2. Video sequences of 10 low power fields are digitally recorded after 5 minutes continuous flow. The percentage of inhibition is calculated from the mean number of cells per field that attached to the coated dish surface in the presence versus absence of compound […].

[5] = system: human P-selectin-IgG chimera; test: Flow chamber assay, cell adhesion and rolling under flow conditions, P-selectin; format: cell-based; conditions: normalized ratio of %-inhibition of compound divided by %-inhibition of bimosiamose; 125 μM compound; HL-60 cells; flow shear 1 dyne/cm^2
Method: as §4, §5, §6

L-Selectin [% inhib.] [1] [% inhib.] | P-Selectin [% inhib.] [2] [% inhib.] | E-Selectin [% inhib.] [3] [% inhib.] | IC50 [1] [µM] | IC50 [2] [µM] | Structure (SMILES) | E-Selectin [Ratio] [4] [Ratio] | P-Selectin [Ratio] [5] [Ratio]
18.7 | 3.0 | 40.7 | – | – | O=C(CCCNC(=O)c1cc(O)cc(O)c1)Nc1cccc(C(=O)O)c1 [Compound 21, 3-[4-(3,5-Dihydroxy-benzoylamino)-butyrylamino]-benzoic acid] | – | –
21.3 | 22.7 | 42.7 | – | – | COC(=O)c1cccc(NC(=O)CCCNC(=O)c2cc(O)cc(O)c2)c1 [Compound 22, 3-[4-(3,5-Dihydroxy-benzoylamino)-butyrylamino]-benzoic acid methyl ester] | – | –
11.6 | 18.9 | 10.5 | – | – | O=C(O)CN1CCN(C(=O)CCCNC(=O)c2cc(O)cc(O)c2)CC1 [Compound 23, {4-[4-(3,5-Dihydroxy-benzoylamino)-butyryl]-piperazin-1-yl}-acetic acid] | – | –
5.9 | 0.5 | 35.9 | – | – | O=C(CCCNC(=O)c1cc(O)cc(O)c1)Nc1ccc(C(=O)O)cc1 [Compound 24, 4-[4-(3,5-Dihydroxy-benzoylamino)-butyrylamino]-benzoic acid] | – | –
13.1 | 1.4 | 35.0 | – | – | O=C(O)CCc1cccc(NC(=O)CCCNC(=O)c2cc(O)cc(O)c2)c1 [Compound 32] | – | –
27.3 | 10.6 | 38.6 | – | – | COC(=O)CCc1cccc(NC(=O)CCCNC(=O)c2cc(O)cc(O)c2)c1 [Compound 33] | – | –
18.1 | 12.9 | 41.0 | – | – | O=C(O)Cc1cccc(NC(=O)CCCNC(=O)c2cc(O)cc(O)c2)c1 [Compound 34] | – | –
19.4 | 15.6 | 40.8 | – | – | COC(=O)Cc1cccc(NC(=O)CCCNC(=O)c2cc(O)cc(O)c2)c1 [Compound 35] | – | –
6.8 | 1.2 | 35.8 | – | – | Cc1ccc(C(=O)O)cc1NC(=O)CCCNC(=O)c1cc(O)cc(O)c1 [Compound 36] | – | –
– | – | – | 151 | 62.9 | COc1ccc(-c2cccc(C(=O)Nc3ccccc3-c3ccc(CC(=O)O)s3)c2)c(OC)c1 [Compound 62, (5-{2-[(2′,4′-Dimethoxy-biphenyl-3-carbonyl)-amino]-phenyl}-thiophen-2-yl)acetic acid] | 1.15 | 1.22
– | – | – | 157 | 81.2 | O=C(O)Cc1ccc(-c2ccccc2NC(=O)c2cccc(-c3ccc(O)cc3O)c2)s1 [Compound 63, (5-{2-[(2′,4′-Dihydroxy-biphenyl-3-carbonyl)-amino]-phenyl}-thiophen-2-yl)acetic acid] | 1.31 | 1.95
– | – | – | 62.3 | 50 | COC(=O)Cc1ccc(-c2ccccc2NC(=O)c2cccc(-c3ccc(O)cc3O)c2)s1 [Compound 64, (5-{2-[(2′,4′-Dihydroxy-biphenyl-3-carbonyl)-amino]-phenyl}-thiophen-2-yl)acetic acid methyl ester] | 1.34 | 1.70
– | – | – | 152 | 67.8 | COc1ccc(-c2cccc(C(=O)Nc3ccccc3-c3ccc(C(=O)O)s3)c2)c(OC)c1 [Compound 66] | 1.21 | 0.76
– | – | – | 434 | 201 | O=C(Nc1ccccc1-c1ccc(C(=O)O)s1)c1cccc(-c2ccc(O)cc2O)c1 [Compound 67] | 1.60 | 0.92
– | – | – | – | 354 | O=C(O)Cc1ccc(-c2ccccc2NC(=O)Cc2cccc(-c3ccc(O)cc3O)c2)s1 [Compound 70, (5-{2-[2-(2′,4′-Dihydroxy-biphenyl-3-yl)-acetylamino]-phenyl}-thiophen-2-yl)-acetic acid] | 0.83 | 0.82
– | – | – | 502 | 260 | O=C(O)Cc1ccc(-c2ccccc2NC(=O)c2cncc(-c3ccc(O)cc3O)c2)s1 [Compound 73, [5-(2-{[5-(2,4-Dihydroxy-phenyl)-pyridine-3-carbonyl]-amino}-phenyl)-thiophen-2-yl]-acetic acid] | 0.99 | 1.20
– | – | – | 131 | 35.3 | COc1cc(OC)cc(-c2cccc(C(=O)Nc3ccccc3-c3ccc(CC(=O)O)s3)c2)c1 [Compound 81, (5-{2-[(3′,5′-Dimethoxy-biphenyl-3-carbonyl)-amino]-phenyl}-thiophen-2-yl)-acetic acid] | 1.27 | 1.55
– | – | – | 144 | 46.6 | COc1cc(OC)cc(-c2cccc(C(=O)Nc3ccccc3-c3ccc(C(=O)O)s3)c2)c1 [Compound 84, 5-{2-[(3′,5′-Dimethoxy-biphenyl-3-carbonyl)-amino]-phenyl}-thiophene-2-carboxylic acid] | 1.36 | 1.02

Reference: US20090030015A1, “NOVEL MULTI-CYCLIC COMPOUNDS” (REVOTAR BIOPHARMACEUTICALS AG, priority 2005, published 2009)
